Results published in ChEMBL document CHEMBL1201862, “PubChem BioAssay data set” (2004).
Where a name gives a salt, the structure may show the parent alone. Activity calls are given as the source filed them.

Key:
[1] = target: Luciferin 4-monooxygenase (Photinus pyralis, UniProt P08659); experiment: Counter Screen for Luciferase-based Assay Positives. [Related pubchem assays: 620, 618, 411 ]
HT-1080 = experiment: cytotoxicity in HT1080 fibrosarcoma cells, cell-based, fluorescence readout (AID 620); type: functional; settings: Homo sapiens
Estrogen receptor beta = Estrogen receptor beta (Homo sapiens, UniProt Q92731); experiment: ERβ–SRC-3 coactivator interaction inhibitors, confirmation, orthogonal assay, biochemical, ELISA, streptavidin-HRP readout (AID 1060)
Leucine aminopeptidase = target: T1, Leucine aminopeptidase (Plasmodium falciparum 3D7, UniProt Q8IL11); experiment: P. falciparum M17LAP inhibitors, primary screen, biochemical, fluorogenic H-Leu-NHMec substrate, 1536-well (AID 1619); type: functional
T1 sequence (Q8IL11 whole entry): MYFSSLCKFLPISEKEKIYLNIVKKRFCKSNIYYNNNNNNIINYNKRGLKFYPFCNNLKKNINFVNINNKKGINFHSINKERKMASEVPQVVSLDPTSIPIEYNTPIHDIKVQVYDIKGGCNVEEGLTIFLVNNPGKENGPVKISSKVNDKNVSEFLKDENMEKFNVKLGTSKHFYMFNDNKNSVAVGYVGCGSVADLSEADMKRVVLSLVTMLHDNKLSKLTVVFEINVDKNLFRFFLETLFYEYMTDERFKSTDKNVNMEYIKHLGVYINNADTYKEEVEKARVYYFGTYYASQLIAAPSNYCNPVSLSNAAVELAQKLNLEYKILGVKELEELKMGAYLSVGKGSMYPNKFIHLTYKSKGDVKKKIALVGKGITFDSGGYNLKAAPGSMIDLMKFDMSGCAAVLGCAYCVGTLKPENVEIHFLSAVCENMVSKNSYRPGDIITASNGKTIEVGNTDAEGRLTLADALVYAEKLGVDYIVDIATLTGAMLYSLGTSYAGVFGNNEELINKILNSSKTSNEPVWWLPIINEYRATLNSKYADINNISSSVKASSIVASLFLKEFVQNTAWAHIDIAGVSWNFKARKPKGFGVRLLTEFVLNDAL

[2] = target: Induced myeloid leukemia cell differentiation protein Mcl-1 (Homo sapiens, UniProt Q07820); type: functional
[3] = target: T2, Heat shock factor protein 1 (Mus musculus, UniProt P38532); experiment: HSF1 potentiators in luciferase reporter cells, confirmation, cell-based, NIH3T3, luminescence, dose retest (AID 435004); type: functional;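 further: stress induced by proteasome inhibitor MG132 added 30 min after compound; luciferase reporter driven by HSF1 response element in NIH3T3 cells; actives raise luminescence as potentiators of the MG132 stress response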
T2 sequence (P38532 whole entry): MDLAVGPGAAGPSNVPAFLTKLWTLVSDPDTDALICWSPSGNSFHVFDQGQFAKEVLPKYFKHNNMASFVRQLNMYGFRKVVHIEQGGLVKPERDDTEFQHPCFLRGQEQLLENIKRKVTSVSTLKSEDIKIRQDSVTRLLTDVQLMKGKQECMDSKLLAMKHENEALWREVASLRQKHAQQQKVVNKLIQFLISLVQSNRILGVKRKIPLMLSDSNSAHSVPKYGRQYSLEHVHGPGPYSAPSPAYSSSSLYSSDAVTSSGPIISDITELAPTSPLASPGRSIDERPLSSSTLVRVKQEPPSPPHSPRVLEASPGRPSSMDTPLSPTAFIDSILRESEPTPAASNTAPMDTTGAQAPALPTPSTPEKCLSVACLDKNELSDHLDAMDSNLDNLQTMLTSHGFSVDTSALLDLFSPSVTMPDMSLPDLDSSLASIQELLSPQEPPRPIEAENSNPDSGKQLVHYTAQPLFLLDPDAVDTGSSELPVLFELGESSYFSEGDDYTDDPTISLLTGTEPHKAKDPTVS

Genome polyprotein = Genome polyprotein (dengue virus type 2, UniProt P29990); experiment: Dengue-2 NS5 methyltransferase inhibitors, primary screen, biochemical, confirmation dose response (AID 588689); type: functional
[4] = target: T3, Long-chain-fatty-acid--AMP ligase FadD28 (Mycobacterium tuberculosis, UniProt P9WQ59); experiment: Fluorescence polarization aasay to screen for inhibitors that compete for the binding of FadD28 to a bisubstrate Measured in Biochemical System Using Plate Reader - 2147-01_Inhibitor_Dose_CherryPick_Activity.; type: functional, Mycobacterium tuberculosis H37Rv
T3 sequence (P9WQ59 whole entry): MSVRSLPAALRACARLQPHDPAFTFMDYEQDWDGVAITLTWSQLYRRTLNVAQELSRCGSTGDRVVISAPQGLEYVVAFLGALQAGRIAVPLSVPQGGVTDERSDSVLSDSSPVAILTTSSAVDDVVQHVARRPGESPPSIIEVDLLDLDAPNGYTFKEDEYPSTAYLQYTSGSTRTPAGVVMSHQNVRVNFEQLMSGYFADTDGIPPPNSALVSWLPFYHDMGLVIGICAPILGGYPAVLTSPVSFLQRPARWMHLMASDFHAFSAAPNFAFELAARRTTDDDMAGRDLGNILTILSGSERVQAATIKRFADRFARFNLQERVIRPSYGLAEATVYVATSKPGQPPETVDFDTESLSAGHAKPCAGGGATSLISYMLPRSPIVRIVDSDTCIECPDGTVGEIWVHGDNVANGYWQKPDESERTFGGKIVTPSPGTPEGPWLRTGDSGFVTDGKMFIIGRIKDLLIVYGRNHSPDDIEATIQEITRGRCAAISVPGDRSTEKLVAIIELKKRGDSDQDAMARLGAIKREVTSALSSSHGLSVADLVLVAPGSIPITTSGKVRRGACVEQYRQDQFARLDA

[5] = THP-1 cell cytotoxicity, dose response, cytotoxicity control for Vif-APOBEC3G degradation inhibitor project, THP-1 cells (AID 1117359); type: functional; settings: Human immunodeficiency virus 1, THP-1
[6] = inhibitors of intracellular T. cruzi replication, confirmation, NIH3T3 host cells, beta-gal luminescence (AID 2044); type: functional, cell-based;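 further: intracellular parasites grown in NIH/3T3 mouse fibroblasts as host cells; luminescent beta-galactosidase reporter signal from transgenic T. cruzi replicating inside host cells; inhibitors lower the luminescence signal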
[7] = cytotoxicity toward NIH3T3 fibroblasts, dose response, counter-screen, cell-based, ATP luminescence, mouse fibroblasts (AID 2010); type: functional;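 further: cells exposed to compound for about 90 hours before reading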
[8] = target: FAD-linked sulfhydryl oxidase ALR (Homo sapiens, UniProt P55789); experiment: inhibitors of human ALR sulfhydryl oxidase, dose response, biochemical, H2O2 detection, luminescence, cherry-pick (AID 493248)
Nonstructural protein 1 = Nonstructural protein 1 (Influenza A virus, UniProt Q194T2); type: functional, Influenza A virus (A/California/07/2009(H1N1))
[9] = target: Ras and Rab interactor 1/Tyrosine-protein kinase ABL1 (Homo sapiens, UniProt P00519+Q13671); type: functional;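 further: biochemical TR-FRET dose-response test measuring inhibition of binding between Rin1 and Abl proteins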
[10] = target: T4, Histone-lysine N-methyltransferase NSD2 (Homo sapiens, UniProt O96028); type: biochemical
T4 sequence (O96028 whole entry): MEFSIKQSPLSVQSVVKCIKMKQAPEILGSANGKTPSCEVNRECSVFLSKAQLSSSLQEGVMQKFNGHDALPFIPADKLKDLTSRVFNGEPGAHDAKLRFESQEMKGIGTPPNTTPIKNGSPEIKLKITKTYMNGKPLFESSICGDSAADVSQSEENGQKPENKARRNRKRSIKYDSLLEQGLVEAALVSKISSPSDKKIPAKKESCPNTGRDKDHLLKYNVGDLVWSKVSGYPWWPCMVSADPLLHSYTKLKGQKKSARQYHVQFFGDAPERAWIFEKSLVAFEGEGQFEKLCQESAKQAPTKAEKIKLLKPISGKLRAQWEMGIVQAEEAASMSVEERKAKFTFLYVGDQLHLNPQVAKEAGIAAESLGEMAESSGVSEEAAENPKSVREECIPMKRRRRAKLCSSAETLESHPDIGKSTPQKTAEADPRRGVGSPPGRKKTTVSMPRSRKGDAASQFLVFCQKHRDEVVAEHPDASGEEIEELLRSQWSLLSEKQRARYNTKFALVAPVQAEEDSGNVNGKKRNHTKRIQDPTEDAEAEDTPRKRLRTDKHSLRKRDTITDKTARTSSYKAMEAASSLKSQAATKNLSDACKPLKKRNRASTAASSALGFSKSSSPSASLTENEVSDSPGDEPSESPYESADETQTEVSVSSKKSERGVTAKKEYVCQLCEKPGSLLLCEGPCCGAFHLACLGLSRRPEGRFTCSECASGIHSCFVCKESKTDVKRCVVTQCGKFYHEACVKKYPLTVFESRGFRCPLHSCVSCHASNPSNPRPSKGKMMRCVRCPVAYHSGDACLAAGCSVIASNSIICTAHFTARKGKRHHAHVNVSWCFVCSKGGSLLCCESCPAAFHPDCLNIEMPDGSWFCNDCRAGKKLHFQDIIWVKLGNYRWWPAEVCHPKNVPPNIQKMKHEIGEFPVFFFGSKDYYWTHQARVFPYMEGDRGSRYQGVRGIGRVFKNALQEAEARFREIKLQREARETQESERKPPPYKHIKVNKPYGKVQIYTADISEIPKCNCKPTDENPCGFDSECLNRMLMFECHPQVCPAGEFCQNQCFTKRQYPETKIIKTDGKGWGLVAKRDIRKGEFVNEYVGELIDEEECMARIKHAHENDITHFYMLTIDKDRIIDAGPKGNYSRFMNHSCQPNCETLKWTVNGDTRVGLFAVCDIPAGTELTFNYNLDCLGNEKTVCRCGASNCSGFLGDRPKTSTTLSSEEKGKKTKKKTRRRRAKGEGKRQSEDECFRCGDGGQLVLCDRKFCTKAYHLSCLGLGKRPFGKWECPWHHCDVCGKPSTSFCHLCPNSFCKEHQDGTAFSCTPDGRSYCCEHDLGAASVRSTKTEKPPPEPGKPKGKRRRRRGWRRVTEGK

[11] = inhibitors of firefly luciferase expression or activity, dose response, H4 neuroglioma cells, luminescence (AID 1990); type: functional, cell-based
[12] = Luminescence Cell-Based Dose Response HTS to Identify Inhibitors of 5'UTR Stem-Loop Driven Prion Protein mRNA Translation in H4 Neuroglioblastoma Cells. [Related pubchem assays: 1827 (Project Summary), 1813 (Primary HTS)]; type: functional
[13] = inhibitors of SNCA 5'UTR-driven reporter translation, confirmation, H4 neuroglioma cells, luminescence (AID 1988); type: functional, cell-based
[14] = growth suppression of PTEN-null colon cells, dose response, cell-based, HCT116 PTEN knockout (AID 1047); type: functional;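 further: HCT116 colon tumor cells with PTEN knocked out; cells exposed to compound for 60 hours before readout; potency for loss of cell viability measured by luminescence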
[15] = growth suppression of beta-catenin-knockout colon cells, dose response, cell-based, HCT116, human colon tumor (AID 1045); type: functional;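 further: HCT116 colon tumor cells with beta catenin knocked out; cells exposed to compound for 60 hours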
[16] = target: T5, Ubiquitin-conjugating enzyme E2 N (Homo sapiens, UniProt P61088); type: functional;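 further: Dose-response confirmation in a TR-FRET assay detecting UBC13-driven polyubiquitin chain formation, inhibition measured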
T5 sequence (P61088 whole entry): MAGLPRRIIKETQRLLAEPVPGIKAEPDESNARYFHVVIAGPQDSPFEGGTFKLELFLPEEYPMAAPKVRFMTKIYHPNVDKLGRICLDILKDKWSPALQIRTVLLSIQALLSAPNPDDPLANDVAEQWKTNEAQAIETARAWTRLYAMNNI

[17] = Shn3 3'UTR reporter inhibitors, dose response, cell-based, Clone20 osteoblasts, firefly luciferase, cherry-picked (AID 624132); type: functional;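 further: firefly luciferase luminescence from reporter carrying the Shn3 3'UTR in osteoblasts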
[18] = HepG2 cell cytotoxicity, dose response, cytotoxicity control for Shn3 inhibitor project, CellTiter-Glo, cherry-picked (AID 624134); type: functional, cell-based
[19] = control 3'UTR Renilla luciferase suppression, dose response, counter-screen for Shn3 inhibitor project, cell-based, Clone20-Shn3RL, cherry-picked (AID 624133); type: functional
[20] = target: T6, Trace amine-associated receptor 1 (Homo sapiens, UniProt Q96RJ0); experiment: Fluorescence-based cell-based high throughput dose response assay to identify agonists of the human trace amine associated receptor 1 (TAAR1).; type: functional
T6 sequence (Q96RJ0 whole entry): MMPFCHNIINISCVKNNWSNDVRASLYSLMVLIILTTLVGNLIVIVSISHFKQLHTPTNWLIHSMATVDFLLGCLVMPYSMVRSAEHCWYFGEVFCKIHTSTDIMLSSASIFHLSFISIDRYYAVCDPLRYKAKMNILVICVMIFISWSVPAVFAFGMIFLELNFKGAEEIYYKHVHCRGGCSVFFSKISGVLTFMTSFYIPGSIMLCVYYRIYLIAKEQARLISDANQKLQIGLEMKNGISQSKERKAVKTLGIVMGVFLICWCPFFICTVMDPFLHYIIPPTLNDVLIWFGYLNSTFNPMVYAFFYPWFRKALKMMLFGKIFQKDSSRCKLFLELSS

[21] = target: T6, Trace amine-associated receptor 1; experiment: Counterscreen for agonists of the human trace amine associated receptor 1 (hTAAR1): Fluorescence-based cell-based high throughput dose response assay to identify hTAAR1 agonist that also desensitize TAAR1 receptor response.; type: functional

Chain of Estrogen receptor beta (Q92731 whole entry): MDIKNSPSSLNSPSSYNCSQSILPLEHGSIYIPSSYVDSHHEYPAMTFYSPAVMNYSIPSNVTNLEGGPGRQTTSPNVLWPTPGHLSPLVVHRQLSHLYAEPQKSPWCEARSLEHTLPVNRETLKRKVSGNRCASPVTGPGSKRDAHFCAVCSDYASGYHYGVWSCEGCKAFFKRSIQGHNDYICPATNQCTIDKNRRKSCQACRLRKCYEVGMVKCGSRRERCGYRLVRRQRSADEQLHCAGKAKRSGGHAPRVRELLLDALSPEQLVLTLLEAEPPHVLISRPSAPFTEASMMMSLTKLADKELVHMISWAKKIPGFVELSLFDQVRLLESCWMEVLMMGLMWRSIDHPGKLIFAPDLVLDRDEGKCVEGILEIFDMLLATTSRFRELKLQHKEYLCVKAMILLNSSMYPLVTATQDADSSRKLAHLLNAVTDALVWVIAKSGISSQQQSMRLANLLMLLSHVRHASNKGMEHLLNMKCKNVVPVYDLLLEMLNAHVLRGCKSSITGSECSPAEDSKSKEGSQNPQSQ
Chain of Ras and Rab interactor 1/Tyrosine-protein kinase ABL1 (P00519 whole entry): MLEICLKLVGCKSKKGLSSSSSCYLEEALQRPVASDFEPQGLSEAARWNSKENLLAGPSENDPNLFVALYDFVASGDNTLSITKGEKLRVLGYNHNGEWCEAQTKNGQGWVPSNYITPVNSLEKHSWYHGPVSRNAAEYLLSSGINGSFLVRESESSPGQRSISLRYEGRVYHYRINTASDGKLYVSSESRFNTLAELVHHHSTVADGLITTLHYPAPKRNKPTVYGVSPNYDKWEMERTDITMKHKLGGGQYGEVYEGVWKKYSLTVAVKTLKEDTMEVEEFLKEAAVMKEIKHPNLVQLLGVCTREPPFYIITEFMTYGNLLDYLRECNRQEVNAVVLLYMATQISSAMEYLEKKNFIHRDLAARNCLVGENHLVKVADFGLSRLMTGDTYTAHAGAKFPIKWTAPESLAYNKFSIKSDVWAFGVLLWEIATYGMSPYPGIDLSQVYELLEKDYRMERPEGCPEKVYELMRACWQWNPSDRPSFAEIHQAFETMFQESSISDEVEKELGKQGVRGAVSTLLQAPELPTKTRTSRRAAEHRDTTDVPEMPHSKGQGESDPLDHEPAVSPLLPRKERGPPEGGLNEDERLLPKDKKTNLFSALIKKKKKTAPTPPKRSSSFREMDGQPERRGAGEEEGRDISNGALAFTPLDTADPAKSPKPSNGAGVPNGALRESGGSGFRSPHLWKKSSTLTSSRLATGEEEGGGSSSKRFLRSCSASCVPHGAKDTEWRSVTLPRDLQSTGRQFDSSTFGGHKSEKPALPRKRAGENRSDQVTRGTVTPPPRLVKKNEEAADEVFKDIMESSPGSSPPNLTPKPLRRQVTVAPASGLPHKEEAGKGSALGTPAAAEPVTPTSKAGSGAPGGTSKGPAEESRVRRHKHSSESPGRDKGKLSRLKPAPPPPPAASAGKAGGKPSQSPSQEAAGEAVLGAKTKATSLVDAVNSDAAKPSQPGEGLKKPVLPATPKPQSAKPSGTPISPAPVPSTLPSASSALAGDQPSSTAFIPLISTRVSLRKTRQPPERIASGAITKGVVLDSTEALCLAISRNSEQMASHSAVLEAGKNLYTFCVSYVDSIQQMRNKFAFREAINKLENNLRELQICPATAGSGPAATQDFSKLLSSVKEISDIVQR
Chain of Ras and Rab interactor 1/Tyrosine-protein kinase ABL1 (Q13671 whole entry): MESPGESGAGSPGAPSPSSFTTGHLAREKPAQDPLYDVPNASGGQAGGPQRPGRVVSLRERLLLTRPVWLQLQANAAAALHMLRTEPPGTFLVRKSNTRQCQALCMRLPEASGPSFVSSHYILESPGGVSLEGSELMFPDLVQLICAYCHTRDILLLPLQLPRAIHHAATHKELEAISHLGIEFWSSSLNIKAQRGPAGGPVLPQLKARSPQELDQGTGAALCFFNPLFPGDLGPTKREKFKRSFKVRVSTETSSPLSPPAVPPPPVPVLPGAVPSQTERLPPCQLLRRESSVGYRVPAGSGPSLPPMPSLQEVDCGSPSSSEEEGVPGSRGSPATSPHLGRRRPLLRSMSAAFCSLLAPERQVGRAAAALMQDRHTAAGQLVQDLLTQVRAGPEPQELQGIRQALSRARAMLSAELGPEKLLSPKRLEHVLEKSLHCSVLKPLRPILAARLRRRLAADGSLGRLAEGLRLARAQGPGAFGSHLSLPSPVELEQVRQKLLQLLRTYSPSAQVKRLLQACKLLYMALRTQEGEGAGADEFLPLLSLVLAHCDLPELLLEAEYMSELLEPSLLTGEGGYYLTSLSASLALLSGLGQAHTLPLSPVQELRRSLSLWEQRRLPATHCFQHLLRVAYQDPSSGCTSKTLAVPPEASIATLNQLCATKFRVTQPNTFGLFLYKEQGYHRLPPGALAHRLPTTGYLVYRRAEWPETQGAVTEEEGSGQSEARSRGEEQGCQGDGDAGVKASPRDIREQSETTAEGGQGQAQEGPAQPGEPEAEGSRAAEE
Chain of Luciferin 4-monooxygenase (P08659 whole entry): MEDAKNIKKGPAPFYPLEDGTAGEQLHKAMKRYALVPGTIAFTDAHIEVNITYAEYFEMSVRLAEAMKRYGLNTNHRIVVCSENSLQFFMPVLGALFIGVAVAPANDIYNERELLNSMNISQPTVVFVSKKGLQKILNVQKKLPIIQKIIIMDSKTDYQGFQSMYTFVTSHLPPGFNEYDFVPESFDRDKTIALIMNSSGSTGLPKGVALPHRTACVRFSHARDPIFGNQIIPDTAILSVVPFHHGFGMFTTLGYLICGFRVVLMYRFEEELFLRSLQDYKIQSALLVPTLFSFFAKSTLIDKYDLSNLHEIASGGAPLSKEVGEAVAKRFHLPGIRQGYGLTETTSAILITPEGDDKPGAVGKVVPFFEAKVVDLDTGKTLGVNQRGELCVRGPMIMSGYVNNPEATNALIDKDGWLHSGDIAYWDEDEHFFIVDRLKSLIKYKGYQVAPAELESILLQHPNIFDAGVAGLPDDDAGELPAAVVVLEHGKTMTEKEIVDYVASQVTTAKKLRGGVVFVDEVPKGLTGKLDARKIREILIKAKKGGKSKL
Chain of FAD-linked sulfhydryl oxidase ALR (P55789 whole entry): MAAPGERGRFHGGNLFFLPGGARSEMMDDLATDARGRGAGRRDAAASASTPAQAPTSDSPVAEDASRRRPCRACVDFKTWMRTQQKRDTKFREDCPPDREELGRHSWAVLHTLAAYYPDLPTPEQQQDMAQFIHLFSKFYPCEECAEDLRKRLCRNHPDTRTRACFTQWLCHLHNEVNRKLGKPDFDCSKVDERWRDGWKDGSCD
Chain of Nonstructural protein 1 (Q194T2 whole entry): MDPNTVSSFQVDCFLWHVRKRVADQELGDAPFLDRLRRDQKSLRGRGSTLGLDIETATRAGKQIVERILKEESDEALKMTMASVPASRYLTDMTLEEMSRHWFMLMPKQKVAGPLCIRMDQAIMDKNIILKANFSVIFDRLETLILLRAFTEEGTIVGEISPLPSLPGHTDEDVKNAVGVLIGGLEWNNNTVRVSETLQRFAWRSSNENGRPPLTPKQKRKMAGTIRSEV
Chain of Genome polyprotein (P29990 2492-3391 limits assumed): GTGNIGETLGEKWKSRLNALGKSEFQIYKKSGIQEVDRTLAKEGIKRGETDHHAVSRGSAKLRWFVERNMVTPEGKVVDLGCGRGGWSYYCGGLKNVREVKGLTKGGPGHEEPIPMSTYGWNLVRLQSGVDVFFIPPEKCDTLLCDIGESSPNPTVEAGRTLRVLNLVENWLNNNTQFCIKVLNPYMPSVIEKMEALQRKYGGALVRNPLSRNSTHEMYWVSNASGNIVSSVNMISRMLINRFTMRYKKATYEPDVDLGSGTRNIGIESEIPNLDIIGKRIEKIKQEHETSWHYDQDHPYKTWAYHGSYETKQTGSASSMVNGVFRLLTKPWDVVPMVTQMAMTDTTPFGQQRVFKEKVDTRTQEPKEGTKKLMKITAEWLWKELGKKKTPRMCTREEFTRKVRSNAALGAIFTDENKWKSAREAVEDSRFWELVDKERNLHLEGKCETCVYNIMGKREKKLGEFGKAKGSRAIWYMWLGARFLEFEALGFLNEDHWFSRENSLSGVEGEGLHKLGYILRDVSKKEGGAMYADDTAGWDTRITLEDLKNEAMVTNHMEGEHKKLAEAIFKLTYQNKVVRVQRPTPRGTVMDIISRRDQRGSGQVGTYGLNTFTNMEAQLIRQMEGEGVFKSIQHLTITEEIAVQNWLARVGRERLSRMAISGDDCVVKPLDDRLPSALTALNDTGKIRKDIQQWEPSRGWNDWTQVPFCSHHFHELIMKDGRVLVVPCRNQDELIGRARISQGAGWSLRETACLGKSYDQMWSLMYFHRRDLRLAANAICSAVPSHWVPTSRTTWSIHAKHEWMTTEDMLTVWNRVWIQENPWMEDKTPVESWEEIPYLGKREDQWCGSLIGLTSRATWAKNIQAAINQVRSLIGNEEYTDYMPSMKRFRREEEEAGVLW
Chain of Induced myeloid leukemia cell differentiation protein Mcl-1 (Q07820 whole entry): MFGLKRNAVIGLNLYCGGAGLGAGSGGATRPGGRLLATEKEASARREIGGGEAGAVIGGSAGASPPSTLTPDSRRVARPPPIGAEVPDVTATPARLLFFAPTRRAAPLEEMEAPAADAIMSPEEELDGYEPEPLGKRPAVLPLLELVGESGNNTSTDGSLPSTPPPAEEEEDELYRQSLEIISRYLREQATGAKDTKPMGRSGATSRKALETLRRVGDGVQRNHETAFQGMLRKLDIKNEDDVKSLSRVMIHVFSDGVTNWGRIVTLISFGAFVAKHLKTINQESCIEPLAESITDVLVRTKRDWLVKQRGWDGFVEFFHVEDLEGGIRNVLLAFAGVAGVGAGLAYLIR

O=C(CSc1nnc(-c2csc3c2CCCC3)o1)Nc1ccccc1
EC50 [1]: 4.34 µM (active)
EC50 (HT-1080): > 50 µM (not active)

CN1CCN(c2ccc(NC(=O)COc3ccccc3Cl)cc2)CC1
IC50 (Estrogen receptor beta): 0.814 µM (not active)

Cc1cccc(NC(=O)CSc2nnc(-c3ccco3)c(-c3ccco3)n2)c1C
IC50 (Leucine aminopeptidase): 20.6 µM (active)
IC50 [2]: 5.98 µM (active)
EC50 [3]: > 260 µM (inactive)
IC50 (Genome polyprotein): 96.3 µM (active)
AC50 [4]: > 100 µM (inactive)
CC50 [5]: > 40 µM (active)

CCN(CCNC(=O)C1CCCN(Cc2nc(-c3ccc(OC)cc3)oc2C)C1)c1ccccc1 (stereo not drawn)
EC50 [6]: < 0.1 µM (active)
EC50 [7]: 7.96 µM (active)
AC50 [8]: 0.01 µM (active)
EC50 (cells): 0.383 µM (active)

CC1NC(=O)NC1CCCCCC(=O)Nc1ccc(F)c(Cl)c1 (stereo not drawn)
IC50 (Nonstructural protein 1): 1.16 µM (active)
IC50 [9]: 0.015 µM (active)
AC50 [10]: 0.343 µM (active)

CCCCCCCSc1cc(OC)c(CCNC)cc1OC
EC50 [11]: > 120 µM (not active)
EC50 [12]: > 120 µM (not active)
EC50 [13]: 11.9 µM (active)
EC50 [14]: 9.72 µM (active)
EC50 [15]: 8.71 µM (active)
IC50 [16]: > 20 µM (inactive)
AC50 [17]: 10.6 µM (active)
AC50 [18]: 8.47 µM (active)
AC50 [19]: 10.5 µM (active)
AC50 [10]: 17.5 µM (active)

O=C(C1=C[C@H](C2CCCCC2)C[C@H](OCc2ccc(CO)cc2)O1)N1CCN(Cc2ccc3c(c2)OCO3)CC1
EC50 [6]: < 0.1 µM (active)
EC50 [7]: > 60 µM (not active)
EC50 (cells): 0.156 µM (active)

CC(=O)n1cc([C@H]2C=C(C(=O)N3CCN(Cc4ccc5c(c4)OCO5)CC3)O[C@@H](OCc3ccc(CO)cc3)C2)c2ccccc21
EC50 [6]: < 0.1 µM (active)
EC50 [7]: > 30 µM (not active)
EC50 (cells): 0.197 µM (active)

CC1CN(CCOCCSc2ccc(Cl)cc2)CC(C)O1 (stereo not drawn)
EC50 [6]: < 0.1 µM (active)
EC50 [7]: > 60 µM (not active)
EC50 (cells): 0.025 µM (active)

c1ccc(CN(CC2=NCCN2)c2ccccc2)cc1 [ANTAZOLINE HYDROCHLORIDE]
EC50 [20]: 4.31 µM (active)
IC50 [21]: > 29.9 µM (inactive)

N#Cc1c(NC(=O)CN2CCCCC2)sc2c1CCCC2
IC50 (Estrogen receptor beta): 0.0343 µM (not active)
